Laboratory results from article PMC8667882 (Journal of Enzyme Inhibition and Medicinal Chemistry, 2021).

Test system: CN (mouse brain extract)
Details: peptide 25 nM, RII substrate

effect on CN activity at 25 nM: minimal effects on CN activity
Sequence: GPHPVIVIT [pep1s]
